Test results as given in ChEMBL document CHEMBL1201862, “PubChem BioAssay data set” (2004).
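96-well plates; 48 h exposure; 5 concentrations. Endpoints by linear interpolation between flanking doses. Not reached: highest tested concentration assigned. The concentration for 50% growth inhibition is given as GI50.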 The source made the active and inactive calls. Cut-off read from the data, not from the text of the source: active = GI50 up to about 1.1 µM and inactive = higher.

Tests used:
Experiment in all cases: NCI anticancer screen, dose series, 48 h
HCT-15 = tested on: HCT-15
HOP-92 = tested on: HOP-92
NCI-H522 = tested on: NCI-H522
Malme-3M = tested on: Malme-3M
HCT-116 = tested on: HCT-116
UACC-62 = tested on: UACC-62
OVCAR-4 = tested on: OVCAR-4
DU-145 = tested on: DU-145
EKVX = tested on: EKVX
SF-539 = tested on: SF-539
A498 = tested on: A498
CAKI-1 = tested on: CAKI-1
CCRF-CEM = tested on: CCRF-CEM
HOP-62 = tested on: HOP-62
RXF 393 = tested on: RXF 393
LOX IMVI = tested on: LOX IMVI
COLO 205 = tested on: COLO 205
T47D = tested on: T47D
M14 = tested on: M14
HCC 2998 = tested on: HCC 2998

SMILES | GI50 (HCT-15) [µM] | GI50 (HOP-92) | GI50 (NCI-H522) | GI50 (Malme-3M) | GI50 (HCT-116) | GI50 (UACC-62) | GI50 (OVCAR-4) | GI50 (DU-145) | GI50 (EKVX) | GI50 (SF-539) | GI50 (A498) | GI50 (CAKI-1) | GI50 (CCRF-CEM) | GI50 (HOP-62) | GI50 (RXF 393) | GI50 (LOX IMVI) | GI50 (COLO 205) | GI50 (T47D) | GI50 (M14) | GI50 (HCC 2998)
CN(CC(=O)O)Cc1c(O)c(Cl)cc(Cl)c1Cl | 21.8 | 23.4 µM (inactive) | 27.8 µM (inactive) | 27.4 µM (inactive) | 12.5 µM (inactive) | 23.1 µM (inactive) | 33.6 µM (inactive) | 34.4 µM (inactive) | 24.2 µM (inactive) | 22.4 µM (inactive) | 46.1 µM (inactive) | 61.8 µM (inactive) | 5.13 µM (inactive) | 29 µM (inactive) | 76.4 µM (inactive) | 14 µM (inactive) | 34.6 µM (inactive) | 54.1 µM (inactive) | 22.2 µM (inactive) | –
CCOC(=O)CCc1cccc2c1oc1c(CCNC(=O)OCC3c4ccccc4-c4ccccc43)cccc12 | > 100 | 23.1 µM (inactive) | 37.9 µM (inactive) | 18.1 µM (inactive) | 79.3 µM (inactive) | 16.4 µM (inactive) | > 100 µM (inactive) | > 100 µM (inactive) | > 100 µM (inactive) | – | > 100 µM (inactive) | 12.9 µM (inactive) | > 100 µM (inactive) | 16.2 µM (inactive) | – | 75.9 µM (inactive) | 34.5 µM (inactive) | 22.8 µM (inactive) | 38.5 µM (inactive) | > 100 µM (inactive)
O=c1[nH]nc(Cc2ccccc2)n1Nc1ccccc1 | > 100 | – | > 100 µM (inactive) | > 100 µM (inactive) | > 100 µM (inactive) | > 100 µM (inactive) | > 100 µM (inactive) | > 100 µM (inactive) | > 100 µM (inactive) | > 100 µM (inactive) | > 100 µM (inactive) | 46.3 µM (inactive) | > 100 µM (inactive) | > 100 µM (inactive) | – | > 100 µM (inactive) | > 100 µM (inactive) | > 10 µM (inactive) | – | > 100 µM (inactive)
CCOC(=O)CN1CC(C2=C(O)CN(CC(=O)OCC)C2=O)=CC1=O | > 100 | > 100 µM (inactive) | > 100 µM (inactive) | > 100 µM (inactive) | > 100 µM (inactive) | > 100 µM (inactive) | > 100 µM (inactive) | > 100 µM (inactive) | > 100 µM (inactive) | > 100 µM (inactive) | > 100 µM (inactive) | > 100 µM (inactive) | > 100 µM (inactive) | > 100 µM (inactive) | – | > 100 µM (inactive) | > 100 µM (inactive) | > 100 µM (inactive) | > 100 µM (inactive) | > 100 µM (inactive)
CO/N=C1\CCC2(O)C3Cc4ccc(O)c5c4C2(CCN3CC2CC2)[C@H]1O5 (stereo partly specified) | > 100 | > 100 µM (inactive) | > 100 µM (inactive) | > 100 µM (inactive) | > 100 µM (inactive) | > 100 µM (inactive) | > 100 µM (inactive) | > 100 µM (inactive) | > 100 µM (inactive) | > 100 µM (inactive) | > 100 µM (inactive) | > 100 µM (inactive) | > 100 µM (inactive) | > 100 µM (inactive) | – | > 100 µM (inactive) | > 100 µM (inactive) | > 100 µM (inactive) | > 100 µM (inactive) | –
Clc1ccc(Cl)c(NNc2cc(Cl)ccc2Cl)c1 | 3.61 | – | 3.68 µM (inactive) | 3.82 µM (inactive) | 3.84 µM (inactive) | 3.88 µM (inactive) | 4.95 µM (inactive) | 5.37 µM (inactive) | 4.45 µM (inactive) | > 10 µM (inactive) | > 10 µM (inactive) | > 10 µM (inactive) | 3.63 µM (inactive) | > 10 µM (inactive) | 6.22 µM (inactive) | 3.57 µM (inactive) | > 10 µM (inactive) | 4.28 µM (inactive) | > 10 µM (inactive) | 7.03 µM (inactive)
Cc1[nH]c2ncn3nc(C(Cl)(Cl)Cl)nc3c2c1Cc1ccccc1 | > 100 | – | > 100 µM (inactive) | > 100 µM (inactive) | > 100 µM (inactive) | > 100 µM (inactive) | > 100 µM (inactive) | > 100 µM (inactive) | > 100 µM (inactive) | > 100 µM (inactive) | > 100 µM (inactive) | > 100 µM (inactive) | > 100 µM (inactive) | > 100 µM (inactive) | > 100 µM (inactive) | – | > 100 µM (inactive) | > 100 µM (inactive) | > 100 µM (inactive) | > 100 µM (inactive)
Cc1ccc(-n2cnc(C(=N)C#N)c2N)cc1 | > 100 | – | > 100 µM (inactive) | > 100 µM (inactive) | > 100 µM (inactive) | > 100 µM (inactive) | > 100 µM (inactive) | > 100 µM (inactive) | > 100 µM (inactive) | > 100 µM (inactive) | > 100 µM (inactive) | > 100 µM (inactive) | > 100 µM (inactive) | > 100 µM (inactive) | – | > 100 µM (inactive) | > 100 µM (inactive) | > 100 µM (inactive) | > 100 µM (inactive) | > 100 µM (inactive)
COc1cc(S(=O)(=O)Nc2nc(-c3ccc(N4C(=O)/C(=C/c5ccccc5)N=C4c4ccccc4)cc3)cs2)ccc1Cl | > 100 | 34.4 µM (inactive) | 35.3 µM (inactive) | 30.8 µM (inactive) | 36.5 µM (inactive) | 21.2 µM (inactive) | 31.3 µM (inactive) | > 100 µM (inactive) | – | 41.1 µM (inactive) | 31.3 µM (inactive) | > 100 µM (inactive) | 34.6 µM (inactive) | 29 µM (inactive) | 32.1 µM (inactive) | 34.5 µM (inactive) | 40 µM (inactive) | 42.2 µM (inactive) | 56.4 µM (inactive) | –
Cc1ccc(-c2nc(C)c(C(=O)Nc3ccc(Cl)cc3)s2)cc1 | > 100 | 23.5 µM (inactive) | 30.5 µM (inactive) | 36.4 µM (inactive) | 18.5 µM (inactive) | 19.6 µM (inactive) | 18.3 µM (inactive) | > 100 µM (inactive) | 37.8 µM (inactive) | 29.9 µM (inactive) | 14.3 µM (inactive) | 20 µM (inactive) | > 100 µM (inactive) | 13.4 µM (inactive) | – | 31.1 µM (inactive) | > 100 µM (inactive) | > 100 µM (inactive) | 27.7 µM (inactive) | –
O=C(O)CCC/N=C(\C(=N\CCCC(=O)O)c1ccccc1)c1ccccc1 | > 100 | – | – | – | > 100 µM (inactive) | > 100 µM (inactive) | > 100 µM (inactive) | > 100 µM (inactive) | > 100 µM (inactive) | – | > 100 µM (inactive) | – | – | > 100 µM (inactive) | > 100 µM (inactive) | > 100 µM (inactive) | > 100 µM (inactive) | > 100 µM (inactive) | > 100 µM (inactive) | > 100 µM (inactive)
COc1cc(C2SCC(=O)N2c2ccc(NC(C)=O)cc2)cc(OC)c1OC (stereo unspecified) | 94.2 | 48.3 µM (inactive) | 71.4 µM (inactive) | – | 69.7 µM (inactive) | 25.5 µM (inactive) | > 100 µM (inactive) | > 100 µM (inactive) | > 100 µM (inactive) | > 100 µM (inactive) | > 100 µM (inactive) | 65.2 µM (inactive) | 25.9 µM (inactive) | – | – | > 100 µM (inactive) | > 100 µM (inactive) | 16.6 µM (inactive) | > 100 µM (inactive) | > 100 µM (inactive)
O=C(CN1CCOCC1)Nc1ccc2c(c1)C1Oc3ccccc3CC1CO2 (stereo unspecified) | > 100 | > 100 µM (inactive) | > 100 µM (inactive) | > 100 µM (inactive) | > 100 µM (inactive) | > 100 µM (inactive) | – | > 100 µM (inactive) | > 100 µM (inactive) | > 100 µM (inactive) | > 100 µM (inactive) | > 100 µM (inactive) | > 100 µM (inactive) | > 100 µM (inactive) | – | > 100 µM (inactive) | > 100 µM (inactive) | > 100 µM (inactive) | > 100 µM (inactive) | > 100 µM (inactive)
CC1(C)CN=C(Nc2cccc(C(F)(F)F)c2)S1 | > 100 | > 100 µM (inactive) | > 100 µM (inactive) | > 100 µM (inactive) | > 100 µM (inactive) | > 100 µM (inactive) | > 100 µM (inactive) | > 100 µM (inactive) | > 100 µM (inactive) | > 100 µM (inactive) | – | > 100 µM (inactive) | > 100 µM (inactive) | > 100 µM (inactive) | > 100 µM (inactive) | > 100 µM (inactive) | > 100 µM (inactive) | > 100 µM (inactive) | > 100 µM (inactive) | > 100 µM (inactive)
COc1ccc(S(=O)(=O)NC(CCC(=O)NN)C(=O)NN)cc1 (stereo unspecified) | > 100 | > 100 µM (inactive) | > 100 µM (inactive) | > 100 µM (inactive) | > 100 µM (inactive) | > 100 µM (inactive) | > 100 µM (inactive) | > 100 µM (inactive) | > 100 µM (inactive) | > 100 µM (inactive) | > 100 µM (inactive) | > 100 µM (inactive) | > 100 µM (inactive) | > 100 µM (inactive) | – | > 100 µM (inactive) | > 100 µM (inactive) | > 100 µM (inactive) | > 100 µM (inactive) | –
COC(=O)C1(Cc2ccc3c(c2)CCC3)Cc2ccccc2C1O (stereo unspecified) | 21.5 | – | 15.9 µM (inactive) | 18.1 µM (inactive) | 17.4 µM (inactive) | 14.5 µM (inactive) | 13.9 µM (inactive) | 39.4 µM (inactive) | 22.8 µM (inactive) | 17.5 µM (inactive) | 18.2 µM (inactive) | 23.8 µM (inactive) | 13.1 µM (inactive) | 22.9 µM (inactive) | – | 15.1 µM (inactive) | 17.3 µM (inactive) | 22.6 µM (inactive) | 19.6 µM (inactive) | 15.3 µM (inactive)
